{"source": "patent US20230212131A1", "about": "“COLLAGEN 1 TRANSLATION INHIBITORS AND METHODS OF USE THEREOF” (Anima Biotech Inc., priority 2020, published 2023)"}
{"test_system": "Collagen translation", "assay": "Tissue selectivity of collagen translation modulator (FIG. 3)", "format": "cell-based", "conditions": "not given", "experimental": "Primary human pulmonary fibroblasts (HPF, PromoCell C-12360) were maintained in fibroblast growth medium 2 (PromoCell C-23020) according to manufacture instruction. Collagen synthesis was inducted using the same cocktail as for the WI-38 cells.\nPrimary human dermal fibroblasts (HDF) (PromoCell C-12302) were maintained in PromoCell's proprietary Fibroblast Growth Medium 2 (ready-to-use, Cat. C-23020). For collagen synthesis induction, cells were seeded on experimental plates for 24 hours followed by addition of collagen induction cocktail. Tested compounds were added together with induction."}
{"compound": "O=C(Nc1nc(-c2ccccc2Cl)cs1)c1ccc(N2CCOCC2)cc1", "note": "[compound 327, N-[4-(2-chlorophenyl)thiazol-2-yl]-4-morpholino-benzamide]", "tissue selectivity": "tissue selective"}
{"test_system": "collagen 1 (COL1)", "assay": "WI-38 collagen 1 inhibition assay", "format": "cell-based, human", "conditions": "Cellular EC50, WI-38 cells; values are classes of LogEC50", "how_it_was_run": "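WI-38 fibroblasts serum-starved (0.25% FBS 2 h, then none 24 h), then given a collagen induction cocktail together with compound. Cells fixed, immunostained for collagen I with DAPI counterstain, and imaged at 20×; per-cell fluorescence quantified by image analysis.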"}
{"compound": "O=C(Nc1nc(-c2ccccc2Cl)cs1)c1ccc(N2CCOCC2)cc1", "note": "[compound 327, N-[4-(2-chlorophenyl)thiazol-2-yl]-4-morpholino-benzamide]", "COL1 Efficacy (LogEC50)": "+++ (+++: <−6)"}
{"compound": "O=C(Nc1nc(-c2ccccc2Cl)cs1)c1ccc(N2CCC[C@H](O)C2)cn1", "note": "[compound 488, (S)—N-(4-(2-chlorophenyl)thiazol-2-yl)-5-(3-hydroxypiperidin-1-yl)picolinamide]", "COL1 Efficacy (LogEC50)": "+++ (+++: <−6)"}
{"compound": "Cc1ncccc1-c1csc(NC(=O)c2cnc(N3CCOCC3)cn2)n1", "note": "[compound 372, N-[4-(2-methyl-3-pyridyl)thiazol-2-yl]-5-morpholino-pyrazine-2-carboxamide]", "COL1 Efficacy (LogEC50)": "+ (+: >−5)"}
{"compound": "CNC1CCN(c2ccc(C(=O)Nc3nc(-c4ccccc4Cl)cs3)nc2)CC1", "note": "[compound 476]", "COL1 Efficacy (LogEC50)": "− (−: inactive)"}
{"compound": "CN1CCC[C@H](C(=O)N2CCN(c3ccc(C(=O)Nc4nc(-c5ccccc5Cl)cs4)nc3)CC2)C1", "note": "[Compound 486, (S)—N-(4-(2-chlorophenyl)thiazol-2-yl)-5-(4-(1-methylpiperidine-3-carbonyl)piperazin-1-yl)picolinamide]", "COL1 Efficacy (LogEC50)": "+++ (+++: <−6)"}
{"compound": "CN(C)Cc1ccccc1-c1csc(NC(=O)c2ccc(N3CCN(S(C)(=O)=O)CC3)cn2)n1", "note": "[Compound 460, N-(4-(2-((dimethylamino)methyl)phenyl)thiazol-2-yl)-5-(4-(methylsulfonyl)piperazin-1-yl)picolinamide hemiformate]", "COL1 Efficacy (LogEC50)": "++ (++: −5 to −6)"}
{"compound": "Cc1cc(N2CCOCC2)ccc1C(=O)Nc1nc(-c2ccccc2Cl)cs1", "note": "[Compound 410, N-(4-(2-chlorophenyl)thiazol-2-yl)-2-methyl-4-morpholinobenzamide]", "COL1 Efficacy (LogEC50)": "+++ (+++: <−6)"}
{"compound": "C[C@H]1COCCN1c1ccc(C(=O)Nc2nc(-c3ccccc3Cl)cs2)nc1", "note": "[compound 464, (S)—N-(4-(2-chlorophenyl)thiazol-2-yl)-5-(3-methylmorpholino)picolinamide]", "COL1 Efficacy (LogEC50)": "+++ (+++: <−6)"}
{"compound": "CN1CCC(Oc2ccc(C(=O)Nc3nc(-c4ccccc4Cl)cs3)nc2)CC1", "note": "[compound 439, N-(4-(2-chlorophenyl)thiazol-2-yl)-5-((1-methylpiperidin-4-yl)oxy)picolinamide]", "COL1 Efficacy (LogEC50)": "+++ (+++: <−6)"}
{"compound": "Cc1ncccc1-c1csc(NC(=O)c2ccc(N3CCOCC3)cc2)n1", "note": "[compound 369, N-[4-(2-methyl-3-pyridyl)thiazol-2-yl]-4-morpholino-benzamide]", "COL1 Efficacy (LogEC50)": "++ (++: −5 to −6)"}
{"compound": "COc1ccc(C(=O)Nc2nc(-c3ccc(F)cc3F)cs2)cc1", "note": "[Compound 325, N-[4-(2,4-difluorophenyl)thiazol-2-yl]-4-methoxy-benzamide]", "COL1 Efficacy (LogEC50)": "+++ (+++: <−6)"}
{"compound": "O=C(Nc1nc(-c2ccccc2Cl)co1)c1ccc(N2CCOCC2)cc1", "note": "[Compound 368, N-[4-(2-chlorophenyl)oxazol-2-yl]-4-morpholino-benzamide]", "COL1 Efficacy (LogEC50)": "++ (++: −5 to −6)"}
{"compound": "O=C(Nc1nc(-c2ccccc2Cl)cs1)C1CC(N2CCOCC2)C1", "note": "(stereo not drawn) [Compound 421, (1s,3s)-N-(4-(2-chlorophenyl)thiazol-2-yl)-3-morpholinocyclobutane-1-carboxamide]", "COL1 Efficacy (LogEC50)": "+ (+: >−5)"}
{"compound": "COCCOc1ccccc1-c1csc(NC(=O)c2ccc(N3CCOCC3)cc2)n1", "note": "[Compound 378, N-(4-(2-(2-methoxyethoxy)phenyl)thiazol-2-yl)-4-morpholinobenzamide]", "COL1 Efficacy (LogEC50)": "+ (+: >−5)"}
{"compound": "O=C(Nc1nc(-c2ccccc2)cs1)c1ccc(N2CCOCC2)cc1", "note": "[compound 359, 4-morpholino-N-(4-phenylthiazol-2-yl)benzamide]", "COL1 Efficacy (LogEC50)": "+ (+: >−5)"}
{"compound": "CC(C)=CC(=O)Nc1nc(-c2cc(Cl)sc2Cl)cs1", "note": "[compound 314]", "COL1 Efficacy (LogEC50)": "++ (++: −5 to −6)"}
{"compound": "O=C(Nc1nc(C2CCOCC2)cs1)c1ccc(N2CCOCC2)cn1", "note": "[compound 393, 5-morpholino-N-(4-(tetrahydro-2H-pyran-4-yl)thiazol-2-yl)picolinamide]", "COL1 Efficacy (LogEC50)": "++ (++: −5 to −6)"}
{"compound": "O=C(Nc1nc(-c2ccccc2Cl)cs1)c1ccc(N2CCOCC2)cc1Cl", "note": "[Compound 409, 2-chloro-N-(4-(2-chlorophenyl)thiazol-2-yl)-4-morpholinobenzamide]", "COL1 Efficacy (LogEC50)": "++ (++: −5 to −6)"}
{"compound": "Cc1ccc(C(=O)Nc2nc(-c3ccc(Cl)cc3Cl)cs2)cc1", "note": "[Compound 307, N-(4-(2,4-dichlorophenyl)thiazol-2-yl)-4-methylbenzamide]", "COL1 Efficacy (LogEC50)": "+++ (+++: <−6)"}
{"compound": "O=C(Nc1nc(-c2ccc(Cl)cc2Cl)cs1)C1CCOCC1", "note": "[Compound 306, N-(4-(2,4-dichlorophenyl)thiazol-2-yl)tetrahydro-2H-pyran-4-carboxamide]", "COL1 Efficacy (LogEC50)": "++ (++: −5 to −6)"}
{"compound": "CS(=O)(=O)N1CCC(Oc2ccc(C(=O)Nc3nc(-c4ccccc4Cl)cs3)nc2)CC1", "note": "[compound 438, N-(4-(2-chlorophenyl)thiazol-2-yl)-5-((1-(methylsulfonyl)piperidin-4-yl)oxy)picolinamide]", "COL1 Efficacy (LogEC50)": "+++ (+++: <−6)"}
{"compound": "CN1CC2(CCN(c3ccc(C(=O)Nc4nc(-c5ccccc5Cl)cs4)nc3)CC2)C1", "note": "[compound 456, N-(4-(2-chlorophenyl)thiazol-2-yl)-5-(2-methyl-2,7-diazaspiro[3.5]nonan-7-yl)picolinamide]", "COL1 Efficacy (LogEC50)": "+++ (+++: <−6)"}
{"compound": "COc1ncc(C(=O)Nc2nc(-c3cnccc3C)cs2)cn1", "note": "[compound 349, 2-methoxy-N-[4-(4-methyl-3-pyridyl)thiazol-2-yl]pyrimidine-5-carboxamide]", "COL1 Efficacy (LogEC50)": "− (−: inactive)"}
{"compound": "COc1cc(OC)cc(-c2csc(NC(=O)c3ccc(N4CCOCC4)cc3)n2)c1", "note": "[compound 353, N-[4-(3,5-dimethoxyphenyl)thiazol-2-yl]-4-morpholino-benzamide]", "COL1 Efficacy (LogEC50)": "+++ (+++: <−6)"}
{"compound": "CS(=O)(=O)N1CCN([C@H]2C[C@@H](C(=O)Nc3nc(-c4ccccc4Cl)cs3)C2)CC1", "note": "[compound 423]", "COL1 Efficacy (LogEC50)": "− (−: inactive)"}
{"test_system": "Collagen type-I", "assay": "Collagen type-I immunofluorescence and Col-I mRNA FISH in WI-38 Human Lung Fibroblasts (FIG. 4)", "format": "cell-based", "conditions": "96 hours incubation (immunofluorescence), 24 hours incubation (FISH of Col-I mRNA)", "experimental": "FIG. 4A: WI-38 Human Lung Fibroblasts, 96 hours incubation with compounds. White: Collagen type-I; Gray: DAPI. Immunofluorescence. FIG. 4B: WI-38 Human Lung Fibroblasts, 24 hours incubation with compounds. FISH analysis. White: Col-I mRNA; Gray: DAPI.\nCells in 96-well or 384-well plates were fixed for 20 min in 4% paraformaldehyde (PFA, ENCO, Cat. sc-281692). Following two washes with 1×PBS, cells were treated with hydrogen peroxide (Acros, Cat: 7722-84-1) for 10 minutes and then washed twice with 1×PBS. Cells were then incubated over-night at 4° C. with Anti-Collagen I (Sigma-Aldrich, Cat: C 2456) antibody and washed three times with 1×PBS. […]\nCell images were taken with Operetta (Perkin Elmer, USA), a wide-field fluorescence microscope at 20× magnification. […] In Columbus, cells were identified by their nucleus, using the “Find Nuceli” module and cytoplasm was detected based on the secondary antibody channel. […]\nFollowing RNA FISH experiments, images of cells were taken with Operetta (Perkin Elmer, USA), a wide-field fluorescence microscope at 20× magnification. […] In Columbus, cells were identified by their nucleus, using the “Find Nuceli” module, cytoplasm was detected based on the FISH-channel, and single mRNAs in the cytoplasm and transcription sites in the nucleus were detected using “Find Spots” module. […]"}
{"compound": "O=C(Nc1nc(-c2ccccc2Cl)cs1)c1ccc(N2CCOCC2)cc1", "note": "[compound 327, N-[4-(2-chlorophenyl)thiazol-2-yl]-4-morpholino-benzamide]", "level of action on collagen synthesis": "act at the level of translation"}
